Measurements from patent US9469615B2, “Quinoxalines and AZA-quinoxalines as CRTH2 receptor modulators” (Merck Sharp & Dohme Corp., priority 2010, dated 2016).

Target: T1, hCRTH2 (Homo sapiens, UniProt Q9Y5Y4)
T1 construct: expressed in transfected cells; host or cells: HEK (human embryonic kidney) cells expressing hCRTH2; membrane preparation
T1 sequence (Q9Y5Y4 1-395): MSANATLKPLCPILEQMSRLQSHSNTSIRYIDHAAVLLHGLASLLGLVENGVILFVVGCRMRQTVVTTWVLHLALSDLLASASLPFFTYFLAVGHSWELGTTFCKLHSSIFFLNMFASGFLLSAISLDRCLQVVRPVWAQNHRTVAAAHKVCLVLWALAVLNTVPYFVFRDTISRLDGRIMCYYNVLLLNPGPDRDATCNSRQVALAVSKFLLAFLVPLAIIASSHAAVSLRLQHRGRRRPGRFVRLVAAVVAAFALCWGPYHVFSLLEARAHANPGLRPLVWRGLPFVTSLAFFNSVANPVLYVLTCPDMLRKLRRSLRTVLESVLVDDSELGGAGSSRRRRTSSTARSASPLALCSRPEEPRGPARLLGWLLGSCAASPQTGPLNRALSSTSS
Assay: Radioligand binding assay ([3H]PGD2 competition, HEK-hCRTH2 membranes)
Method in brief: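 Competition binding with 3.0 nM [3H]PGD2 and 8-20 μg HEK-hCRTH2 membrane protein in 50 mM Tris-HCl pH 7.4, 1 mM EDTA, 2 mM MnCl2, 1% Me2SO, 60 min at room temperature. Nonspecific binding defined with 10 μM PGD2; bound radioactivity counted after filtration.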

[1] = [3H]PGD2 binding, rated A-E (Table A)
[2] = [3H]PGD2 binding, values in text

| Structure (SMILES) | Ki [1] [nM] | Ki [2] [nM] | Ki ([3H]PGD2 competition, Table B) [nM] |
| --- | --- | --- | --- |
| O=C(O)CCCCc1nc2cc(C(=O)N3CC(c4ccc(F)c(F)c4)C3)ccc2nc1-c1ccccc1 [compound 249, 7-[[3-(3,4-difluorophenyl)-1-azetidinyl]carbonyl]-3-phenyl-2-quinoxalinepentanoic acid] | 0.1 to 2 | – | – |
| O=C(O)CCCCc1nc2cc(C(=O)N3CC(c4ccc(F)cc4)C3)ccc2nc1-c1ccccc1 [compound 250, 7-[[3-(4-fluorophenyl)-1-azetidinyl]carbonyl]-3-phenyl-2-quinoxalinepentanoic acid] | 0.1 to 2 | – | – |
| O=C(O)CCCCc1nc2cc(C(=O)N3CC(c4cccc(F)c4)C3)ccc2nc1-c1ccccc1 [compound 251, 7-[[3-(3-fluorophenyl)-1-azetidinyl]carbonyl]-3-phenyl-2-quinoxalinepentanoic acid] | 0.1 to 2 | 1 | – |
| O=C(O)CCCCc1nc2cc(C(=O)N3CC(c4ccc(Cl)cc4)C3)ccc2nc1-c1ccccc1 [compound 252, 7-[[3-(4-chlorophenyl)-1-azetidinyl]carbonyl]-3-phenyl-2-quinoxalinepentanoic acid] | 0.1 to 2 | – | – |
| O=C(O)CCCCc1nc2cc(C(=O)N3CC(c4cccc(Cl)c4)C3)ccc2nc1-c1ccccc1 [compound 253, 7-[[3-(3-chlorophenyl)-1-azetidinyl]carbonyl]-3-phenyl-2-quinoxalinepentanoic acid] | 0.1 to 2 | – | – |
| O=C(O)CCCCc1nc2cc(C(=O)N[C@@H]3CCCc4cc(F)ccc43)ccc2nc1-c1ccccc1 [compound 254, 7-[[(6-fluoro-1,2,3,4-tetrahydro-1(R)-naphthalenyl)amino]carbonyl]-3-phenyl-2-quinoxalinepentanoic acid] | 0.1 to 2 | – | – |
| O=C(O)CCCCc1nc2cc(C(=O)N[C@@H]3CCCc4cc(Cl)ccc43)ccc2nc1-c1ccccc1 [compound 255, 7-[[(6-chloro-1,2,3,4-tetrahydro-1(R)-naphthalenyl)amino)carbonyl]-3-phenyl-2-quinoxalinepentanoic acid] | 0.1 to 2 | 1.5 | – |
| O=C(O)CCCCc1nc2cc(C(=O)N[C@@H]3CCCc4ccccc43)ccc2nc1-c1ccccc1 [compound 256, (R)-5-(3-phenyl-7-((1,2,3,4-tetrahydronaphthalen-1-yl)carbamoyl)quinoxalin-2-yl)pentanoic acid] | – | – | 0.1 to 2 |
| C[C@H](NC(=O)c1ccc2nc(-c3ccc(Cl)cc3)c(CCCCC(=O)O)nc2c1)c1ccc(C#N)cc1 [compound 257] | – | – | 2.1 to 20 |
| C[C@@H](CCc1nc2cc(C(=O)N[C@@H]3CCCc4ccccc43)ccc2nc1-c1ccc(F)cc1)CC(=O)O [compound 258, (S)-5-(3-(4-fluorophenyl)-7-(((R)-1,2,3,4-tetrahydronaphthalen-1-yl)carbamoyl)quinoxalin-2-yl)-3-methylpentanoic acid] | – | – | 2.1 to 20 |
| O=C(O)Cc1cccc(-c2nc3cc(C(=O)N4CCN(c5ccccc5)CC4)ccc3nc2-c2ccc(Cl)cc2)c1 [compound 259, 2-(3-(3-(4-chlorophenyl)-7-(4-phenylpiperazine-1-carbonyl)quinoxalin-2-yl)phenyl)acetic acid] | – | – | 201 to 700 |
| O=C(N[C@@H]1CCCc2cc(F)ccc21)c1ccc2nc(-c3ccc(F)cc3)c(CC[C@H]3C[C@@H]3C(=O)O)nc2c1 [compound 261, (1S,2S)-2-(2-(7-(((R)-6-fluoro-1,2,3,4-tetrahydronaphthalen-1-yl)carbamoyl)-3-(4-fluorophenyl)quinoxalin-2-yl)ethyl)cyclopropane-carboxylic acid] | – | – | 2.1 to 20 |
| O=C(N[C@@H]1CCCc2ccccc21)c1ccc2nc(-c3ccc(F)cc3)c(CC[C@H]3C[C@@H]3C(=O)O)nc2c1 [compound 262, (1S,2S)-2-(2-(3-(4-fluorophenyl)-7-(((R)-1,2,3,4-tetrahydronaphthalen-1-yl)carbamoyl)quinoxalin-2-yl)ethyl)cyclopropanecarboxylic acid] | – | – | 2.1 to 20 |

More lines, now with the values ahead:

| Ki [1] [nM] | Ki [2] [nM] | Ki ([3H]PGD2 competition, Table B) [nM] | Structure (SMILES) |
| --- | --- | --- | --- |
| – | – | 2.1 to 20 | O=C(N[C@@H]1CCCc2cc(F)ccc21)c1ccc2nc(-c3ccc(F)cc3)c(CC[C@@H]3C[C@H]3C(=O)O)nc2c1 [compound 263, (1R,2R)-2-(2-(7-(((R)-6-fluoro-1,2,3,4-tetrahydronaphthalen-l-yl)carbamoyl)-3-(4-fluorophenyl)quinoxalin-2-yl)ethyl)cyclopropanecarboxylic acid] |
| – | 15.4 | 2.1 to 20 | O=C(N[C@@H]1CCCc2cc(F)ccc21)c1ccc2nc(-c3ccc(F)cc3)c(CCC3CC3C(=O)O)nc2c1 (stereo partly drawn) [compound 264, 2-(2-(7-(((R)-6-fluoro-1,2,3,4-tetrahydronaphthalen-l-yl)carbamoyl)-3-(4-fluorophenyl)quinoxalin-2-yl)ethyl)cyclopropanecarboxylic acid] |
| – | – | 2.1 to 20 | C[C@@H]1CN(c2ccc(F)cc2)CCN1C(=O)c1ccc2nc(-c3ccccc3)c(CCCCC(=O)O)nc2c1 [compound 265, (R)-5-(7-(4-(4-fluorophenyl)-2-methylpiperazine-1-carbonyl)-3-phenylquinoxalin-2-yl)pentanoic acid] |
| – | – | 2.1 to 20 | O=C(O)CCCCc1nc2cc(C(=O)NC3CC(=O)Nc4ccccc43)ccc2nc1-c1ccccc1 (stereo not drawn) [compound 266, 5-(7-((2-oxo-1,2,3,4-tetrahydroquinolin-4-yl)carbamoyl)-3-phenylquinoxalin-2-yl)pentanoic acid] |
| – | – | 2.1 to 20 | O=C(O)CCCCc1nc2cc(C(=O)N3CCC4(CC3)CNC(=O)c3ccccc34)ccc2nc1-c1ccc(Cl)cc1 [compound 267, 5-(3-(4-chlorophenyl)-7-(1-oxo-2,3-dihydro-1H-spiro[isoquinoline-4,4′-piperidin]-1′-ylcarbonyl)quinoxalin-2-yl)pentanoic acid] |
| – | – | 2.1 to 20 | O=C(O)CCCCc1nc2cc(C(=O)NC3CCC(=O)Nc4ccccc43)ccc2nc1-c1ccc(Cl)cc1 (stereo not drawn) [compound 268, 5-(3-(4-chlorophenyl)-7-((2-oxo-2,3,4,5-tetrahydro-1H-benzo[b]azepin-5-yl)carbamoyl)quinoxalin-2-yl)pentanoic acid] |
| – | – | 201 to 700 | O=C(O)Cc1cccc(CCCc2nc3cc(C(=O)N[C@@H]4CCCc5ccccc54)ccc3nc2-c2ccc(F)cc2)c1 [compound 269, (R)-2-(3-(3-(3-(4-fluorophenyl)-7-((1,2,3,4-tetrahydronaphthalen-1-yl)carbamoyl)quinoxalin-2-yl)propyl)phenyl)acetic acid] |
| – | – | 201 to 700 | O=C(O)Cc1cccc(CCCc2nc3cc(C(=O)N[C@H]4CCCc5ccccc54)ccc3nc2-c2ccc(F)cc2)c1 [compound 270, (S)-2-(3-(3-(3-(4-fluorophenyl)-7-((1,2,3,4-tetrahydronaphthalen-1-yl)carbamoyl)quinoxalin-2-yl)propyl)phenyl)acetic acid] |
| – | – | 201 to 700 | C[C@@H](NC(=O)c1ccc2nc(-c3ccc(F)cc3)c(CCCc3cccc(CC(=O)O)c3)nc2c1)c1ccc(F)cc1 [compound 271] |
| – | – | 20.1 to 200 | O=C(O)Cc1cccc(CCCc2nc3cc(C(=O)N4CCN(c5ccccc5)CC4)ccc3nc2-c2ccc(F)cc2)c1 [compound 272, 2-(3-(3-(3-(4-fluorophenyl)-7-(4-phenylpiperazine-1-carbonyl)quinoxalin-2-yl)propyl)phenyl)acetic acid] |
| – | – | 20.1 to 200 | O=C(O)Cc1cccc(CCCc2nc3cc(C(=O)N4CC(c5cccc(F)c5)C4)ccc3nc2-c2ccc(F)cc2)c1 [compound 273, 2-(3-(3-(3-(4-fluorophenyl)-7-(3-(3-fluorophenyl)azetidine-1-carbonyl)quinoxalin-2-yl)propyl)phenyl)acetic acid] |
| – | – | 2.1 to 20 | O=C(O)Cc1cccc(CCCc2nc3cc(C(=O)N4CC[C@@H](c5ccccc5)C4)ccc3nc2-c2ccc(F)cc2)c1 [compound 274, (S)-2-(3-(3-(3-(4-fluorophenyl)-7-(3-phenylpyrrolidine-1-carbonyl)quinoxalin-2-yl)propyl)phenyl)acetic acid] |
| – | – | 20.1 to 200 | CN(Cc1ccc(F)cc1)C(=O)c1ccc2nc(-c3ccc(F)cc3)c(CCCc3cccc(CC(=O)O)c3)nc2c1 [compound 275, 2-(3-(3-(7-((4-fluorobenzyl)(methyl)carbamoyl)-3-(4-fluorophenyl)quinoxalin-2-yl)propyl)phenyl)acetic acid] |
| – | – | 2.1 to 20 | C[C@H](CCc1nc2cc(C(=O)N[C@@H]3CCCc4ccccc43)ccc2nc1-c1ccccc1)CC(=O)O [compound 276, (R)-3-methyl-5-(3-phenyl-7-(((R)-1,2,3,4-tetrahydronaphthalen-1-yl)carbamoyl)quinoxalin-2-yl)pentanoic acid] |
| – | – | 2.1 to 20 | C[C@H](CCc1nc2cc(C(=O)N[C@H]3CCCc4ccccc43)ccc2nc1-c1ccccc1)CC(=O)O [compound 277, (R)-3-methyl-5-(3-phenyl-7-(((S)-1,2,3,4-tetrahydronaphthalen-1-yl)carbamoyl)quinoxalin-2-yl)pentanoic acid] |
| – | – | 20.1 to 200 | C[C@H](CCc1nc2cc(C(=O)N[C@H](C)c3ccc(F)cc3)ccc2nc1-c1ccccc1)CC(=O)O [compound 278, (R)-5-(7-(((R)-1-(4-fluorophenyl)ethyl)carbamoyl)-3-phenylquinoxalin-2-yl)-3-methylpentanoic acid] |
| – | – | 20.1 to 200 | C[C@H](CCc1nc2cc(C(=O)N[C@@H](C)c3ccc(F)cc3)ccc2nc1-c1ccccc1)CC(=O)O [compound 279, (R)-5-(7-(((S)-1-(4-fluorophenyl)ethyl)carbamoyl)-3-phenylquinoxalin-2-yl)-3-methylpentanoic acid] |
